From article PMC2765504 (Journal of natural products, 2009)

Molecular target: T1, EncN (Streptomyces maritimus, UniProt Q9KHK1)
T1 sequence (Q9KHK1 1-522): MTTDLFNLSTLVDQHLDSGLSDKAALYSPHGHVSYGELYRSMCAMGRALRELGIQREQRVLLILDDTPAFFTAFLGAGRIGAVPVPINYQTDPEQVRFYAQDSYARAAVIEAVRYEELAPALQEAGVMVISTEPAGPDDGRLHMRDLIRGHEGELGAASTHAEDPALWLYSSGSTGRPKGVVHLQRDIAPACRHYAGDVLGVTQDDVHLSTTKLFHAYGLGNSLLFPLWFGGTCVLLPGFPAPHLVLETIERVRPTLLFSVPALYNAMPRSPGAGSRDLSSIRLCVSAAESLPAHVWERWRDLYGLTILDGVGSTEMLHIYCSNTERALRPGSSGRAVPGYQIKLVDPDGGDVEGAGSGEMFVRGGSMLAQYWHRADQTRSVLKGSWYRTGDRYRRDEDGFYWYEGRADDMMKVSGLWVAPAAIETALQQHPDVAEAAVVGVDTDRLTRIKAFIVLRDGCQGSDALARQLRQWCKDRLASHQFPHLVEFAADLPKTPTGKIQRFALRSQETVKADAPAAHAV
T1 sequence (Q9KHK4 1-82 partner): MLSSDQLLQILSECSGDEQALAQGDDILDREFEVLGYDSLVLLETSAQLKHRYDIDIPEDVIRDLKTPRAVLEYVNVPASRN
Assay: FTMS of acyl loading on holo-EncC
Assay type: biochemical
Conditions: ATP 10 mM, EncN 2 uM, holo-EncC 20 uM

With O=C(O)c1ccccc1 [benzoic acid] the “FTMS of acyl loading on holo-EncC” value (benzoic acid 10 mM) was “Upon incubation with EncN, benzoate was transferred in typical nonribosomal peptide synthetase fashion”.

With O=C(O)c1ccccc1O [salicylic acid] the “FTMS of acyl loading on holo-EncC” value (benzoic acid omitted) was “in its absence, EncN preferentially activates and loads salicylate”.
